Literature values in patent publication US20250222014A1, “COMPOSITION FOR LOCALIZED FAT REDUCTION WITHOUT PAIN, EDEMA AND SIDE EFFECTS AND METHOD OF ADMINISTRATION THEREOF” (AMI PHARM CO., LTD., priority 2024, published 2025).

Test system: adipocytes (3T3L1 adipocytes), normal fibroblasts, vascular endothelial cells and skeletal muscle cells
Settings: Gupta, Aest Plast Sur, 33:346-352, 2009

## C[C@H](CCC(=O)O)[C@H]1CC[C@H]2[C@@H]3CC[C@@H]4C[C@H](O)CC[C@]4(C)[C@H]3C[C@H](O)[C@]12C [DCA, (4R)-4-[(3R,5R,8R,9S,10S,12S,13R,14S,17R)-3,12-dihydroxy-10,13-dimethyl-2,3,4,5,6,7,8,9,11,12,14,15, 16,17-tetradecahydro-1H-cyclopenta[a]phenanthren-17-yl] pentanoic acid]
  cell lysis selectivity (cell-lytic rather than fat-dissolving): non-selectively dissolves not only adipocytes (3T3L1 adipocytes) but also normal fibroblasts, vascular endothelial cells and skeletal muscle cells
